{"source": "patent US12661355B2", "about": "“Compounds and methods for inducing UCP1 expression” (The Regents of the University of California, priority 2020, dated 2026)", "key": {"NRVM": {"system": "NRVM", "test": "Respirometry (reserve capacity) in neonatal rat ventricular myocytes", "assay_type": "cell-based", "settings": "10 μM Z160 for 24 h following 48 h 100 μM isoproterenol", "procedure": "Rat H9c2 cells were grown in DMEM supplemented with 10% FBS, 25 mM glucose, 1 mM pyruvate, and 2 mM glutamine Neonatal rat ventricular myocytes (NRVM) were isolated and cultured as previously described. Briefly, 2-4 day old rats were sacrificed and myocytes and fibroblasts were isolated and separated using a Percoll density gradient. Following isolation, NRVMs were plated on gelatin-coated plates in DMEM containing 10% FBS, 25 mM glucose, 1 mM pyruvate, and 2 mM glutamine The next day, FBS was replaced by 1× insulin-transferrin-selenium supplement and the cells were treated with vehicle or 10 μM Z160 for 2 days, with or without 60 μM isoproterenol or 50 μM phenylephrine.\nNRVM were seeded in a Seahorse Bioscience XF96 plate and cultured for 48 h in 10% FBS. Next, cells were treated with 100 μM ISO for 48 h, followed by 24 h of 10 μM Z160. Oxygen consumption rate (OCR) was recorded in a Seahorse Bioscience XF96 analyzer before and after the sequential injection of 0.75 μM oligomycin, 0.75 μm FCCP and 0.75 μM rotenone/myxothiazol. Reserve capacity was calculated as the difference between basal respiration and FCCP response."}, "[1]": {"system": "electron transport chain protein complexes", "test": "Western blot of electron transport chain protein complexes in isolated mitochondria", "assay_type": "cell-based, mouse", "settings": "overnight 10 μM", "procedure": "Cells and tissues were lysed in 10 mM Tris pH 7.5, 10 mM NaCl, 1 mM EDTA and 0.5% Triton X-100, supplemented with complete mini EDTA-free protease (Roche Diagnostics) and phosphatase (Cocktail 2 and 3, Sigma) inhibitors, followed by 10 second sonication. For analysis of mitochondrial proteins, mitochondria were isolated from cells by dual centrifugation, as described. Protein lysates were separated by SDS-PAGE and transferred to a nitrocellulose membrane. Transfer was confirmed by Ponceau staining (P7170, Sigma). After blocking in 5% milk, 0.1% Tween-20 in Tris-buffered saline (TBS), primary antibody was incubated overnight at 4° C. in 5% bovine serum albumin and 0.1% Tween-20 in TBS. Primary antibodies against ACTB (GTX109639, GeneTex), AKAP1 (5203, Cell Signaling), AKAP6 (07-087, Millipore), Cytochrome c (136F3, Cell Signaling), electron transport chain protein complexes (Total OXPHOS rodent WB antibody cocktail ab110413, Abcam), GAPDH (GTX100118, Genetex), active p38 MAPK (V1211, Promega), total p38 MAPK (8690, Cell Signaling), PGC1α (AB3242, Millipore), phospho-(Ser/Thr) PKA substrate (9621, Cell Signaling), PKA C-α (4782, Cell Signaling), PKA RII-β (ab75993, Abcam), and UCP1 (662045, Calbiochem) were used at 1:2000. […] Quantification using representative bands from the Ponceau staining was performed with ImageJ."}, "UCP1": {"system": "UCP1", "test": "Gene expression in immortalized human brown adipocytes", "assay_type": "cell-based", "settings": "10 μM for 4 days", "procedure": "Human immortalized brown and white preadipocytes were obtained from Dr. Yu-Hua Tseng (Joslin Diabetes Center, Harvard Medical School, USA). The generation of the two cell lines from human neck adipose tissue biopsies and immortalization was performed as previously described but from a different donor. Cells were cultured in high glucose DMEM supplemented with 10% FBS and antibiotics. Two days after reaching confluence, cells were treated with 30 μM biotin, 500 nM insulin, 17 μM pantothenate, 100 nM dexamethasone, 2 nM 3,3′,5-Triiodo-L-thyronine, 500 μM IBMX, 30 μM indomethacin and 1 μM rosiglitazone, for 12 days. Afterwards, cells were treated with 30 μM biotin, 500 nM insulin, 17 μM pantothenate and 2 nM 3,3′,5-Triiodo-L-thyronine (Maintenance media) for 2 days with end-point assays performed on day 18, and for 5 days with end-point assays performed on day 21, for the brown and white adipocytes cells, respectively.\nMouse RNA levels were measured by qPCR according to known methods. Data were normalized to B2m and Tbp reference genes. Human RNA was extracted using an RNA Mini Plus kit (Zymo) and gene expression determined by Taqman assay. The 1-step qPCR was run on a QuantStudio 12K Flex Real Time PCR System (ThermoFisher) using the following protocol: 50° C. for 5 minutes, 95° C. for 20 seconds, 40 cycles of 95° C. for 15 seconds and 60° C. for 60 seconds. […]"}, "[2]": {"target": "T1, PKA subunits (C-α and RII-β) (Mus musculus, UniProt P05132+P31324)", "T1 construct": "endogenous in cells; host or cells: immortalized mouse brown adipocytes", "test": "CETSA in brown adipocytes, PKA subunits", "assay_type": "binding", "settings": "10 μM for 8 h", "procedure": "CETSA assays were performed according to known methods. Briefly, differentiated brown adipocytes (one 10 cm dish per treatment) were treated with vehicle or compounds, trypsinized, counted, and re-suspended in approximately 450 μl PBS containing protease inhibitors (volumes were adjusted to have the same number of cells in each treatment). For each sample, 18 μl was distributed into each of 7 PCR tubes. Samples were heated using a thermocycler with a temperature gradient (iCycler, Biorad) for 3 min, followed by 3 min at room temperature, and then snap-frozen in liquid N2. After two freeze-thaw cycles, samples were centrifuged at 20,000 g for 15 min at 4° C., and the supernatants were transferred to another set of tubes. Proteins were analyzed by immunoblotting.\nThe PKA tetramer consists of two catalytic and two regulatory subunits. In the mouse, these are catalytic subunits C-α and C-β, and regulatory subunits RI and RII, each with α and β isoforms (RI-α, RI-β, RII-α, RII-β). […]\nThe potential interaction of Z160 with PKA subunits and AKAPs was assessed first by identifying which PKA subunits and AKAP isoforms are normally present in BAT. […] To perform the CETSA assays, cultured brown adipocytes were incubated with 10 μM Z160 for 8 h, after which the thermal shift was analyzed by Western blot."}}, "data": [{"smiles": "COc1ccc(NC(=O)CSc2nc3ccccc3c(=O)[nH]2)c(OC)c1", "note": "[Z160]", "values": [{"measurement": "effect on isoproterenol-induced reduction in reserve capacity", "setting": "NRVM", "value": "prevented the ISO-induced reduction in reserve capacity"}, {"measurement": "mitochondrial complex protein abundance", "setting": "[1]", "value": "slight enhancement"}, {"measurement": "CIDEA expression", "setting": "UCP1", "value": "increased expression"}, {"measurement": "UCP1 expression", "setting": "UCP1", "value": "~7", "unit": "fold"}, {"measurement": "denaturation (thermal shift) of PKA subunits C-α and RII-β", "setting": "[2]", "value": "did not show differences in denaturation"}]}]}
